One series relates to MOLT/DAU-8 cells. Put plainly: cells. Format: cell-based. An excerpt: (§1) For this, a selected compound of the formula I, the compound (-)-1,4-dihydro-2,6-dimethyl-4-(3-nitrophenyl)-pyridine-3,5-dicarboxylic acid 3-methyl 5- 3(4,4-diphenyl-1-piperidinyl)-propyl! ester hydrochloride (=compound 1), was investigated in more detail as follows:
(§2) The tumour cell lines MOLT/VCR-5×9 (starting density: 1.14×10^6 cells/ml), MOLT/DAU-8 (starting density: 1.01×10^6 cells/ml) and CCRF CEMVCR1000+(starting density: 2.00×10^6 cells/ml), which are resistant towards the cytostatics vincristine and daunomycin, were incubated for 72.5 to 73.25 hours in accordance with the following test pattern:
(§3) 2. Control with the cytostatic relating to the particular cell line (for the concentrations, see below)
(§4) 4. Compound 1 in concentrations of 10^-6 and 10^-7 M
(§5) 5. Compound 1 in concentrations of 10^-6 and 10^-7 M, together with the cytostatic relating to the particular cell line (for the concentrations, see below).
(§6) The cytostatic concentrations used for the individual cell lines were: […]

The subject of another series is MOLT/VCR-5×9 cells. Description: cells. Format: cell-based.
Excerpt: as §1, §2, §3, §4, §5
(§7) The cytostatic concentrations used for the individual cell lines were:
(§8) Vincristine: 5×10^-9 M (for MOLT/VCR-5×9)

For a further series, the system named is CCRF CEM VCR1000+ cells. Put plainly: cells. It counts as cell-based.
Excerpt: as §1, §2, §3, §4, §5, §6

For series [1], the system named is MOLT/VCR-5×9, MOLT/DAU-8 and CCRF CEM VCR1000+ tumour cell lines.
Excerpt: as §1, §2, §3, §4, §5, §7, §8

Where [2] appears, read: 73.25 h, read-out: Growth inhibition in %, compound 1 by itself.
The mark [3] stands for this setting: Homo sapiens, CCRF-CEM/VCR-1000, 73.25 h, read-out: Growth inhibition in %, compound 1 by itself.

Several values for one entry are separate records, joined by “and”; a condition that tells them apart may be missing. Equal entries are not always repeated. Structures can show the parent of a compound that is named as a salt.

A word on the inhibition: it is the relative decrease from the control value, in per cent. With `COc1cccc2c1C(=O)c1c(O)c3c(c(O)c1C2=O)C[C@@](O)(C(C)=O)C[C@@H]3O[C@H]1C[C@H](N)[C@H](O)[C@H](C)O1` [Daunomycin, reference compound], the inhibition at 0.01 µM in the series with MOLT/DAU-8 cells (MOLT/DAU-8, daunomycin 10^-8 M by itself, 72.5 to 73.25 h, vs DMSO control, read-out: Growth inhibition in %, cytostatic by itself) came out at 0%.
Take `CC[C@]1(O)C[C@H]2CN(CCc3c([nH]c4ccccc34)[C@@](C(=O)OC)(c3cc4c(cc3OC)N(C=O)[C@H]3[C@@](O)(C(=O)OC)[C@H](OC(C)=O)[C@]5(CC)C=CCN6CC[C@]43[C@@H]65)C2)C1` [Vincristine, reference compound]: the inhibition at 0.005 µM in the series on MOLT/VCR-5×9 cells (MOLT/VCR-5 × 9, vincristine 5 × 10^-9 M by itself, 72.5 to 73.25 h, vs DMSO control, read-out: Growth inhibition in %, cytostatic by itself) is 0%. In the series with CCRF CEM VCR1000+ cells (Homo sapiens, CCRF-CEM/VCR-1000, CCRF CEM VCR1000+, vincristine 1.08 × 10^-6 M by itself, 72.5 to 73.25 h, vs DMSO control, read-out: Growth inhibition in %, cytostatic by itself), the inhibition at 1.08 µM is 0%.
For `COC(=O)C1=C(C)NC(C)=C(C(=O)OCCCN2CCC(c3ccccc3)(c3ccccc3)CC2)C1c1cccc([N+](=O)[O-])c1` (single isomer, unassigned; (-)) [Compound 1, (-)-1,4-dihydro-2,6-dimethyl-4-(3-nitrophenyl)-pyridine-3,5-dicarboxylic acid 3-methyl 5-3(4,4-diphenyl-1-piperidinyl)-propyl! ester hydrochloride], the “Growth inhibition in %, compound 1 + cytostatic” value was 99 in the series with MOLT/VCR-5×9 cells; 65 and 90 with CCRF CEM VCR1000+ cells (hydrochloride); 56 and 96 in the series on MOLT/DAU-8 cells (hydrochloride). Also, the values for the inhibition at 0.1 µM with MOLT/VCR-5×9 cells (setting [2]), with CCRF CEM VCR1000+ cells (setting [3]) and in the series on MOLT/DAU-8 cells (setting [2]) were 66%, 10% and 43%, respectively. The inhibition at 10 µM in the series with MOLT/VCR-5×9 cells (setting [2]) is 79%; with CCRF CEM VCR1000+ cells (setting [3]), 67%; with MOLT/DAU-8 cells (setting [2]), 53%. For the same compound, the “concentration dependence of growth inhibition (in words)” value in series [1] is given as “This inhibition of growth depends on the concentration”. In series [1], the “inhibition of growth by compound 1 by itself (in words)” value is given as “All resistant cells are inhibited in their growth”. The “overcoming of resistance and intensification of cytotoxicity (in words)” value in series [1] was “the resistance towards cytostatics is overcome and the cytotoxicity of the cytostatics is intensified”.

For the origin of these results see patent publication US5514664A, “1,4-dihydropyridines for application in combatting resistance to drugs” (BYK Gulden Lomberg Chemische Fabrik GmbH, priority 1990, dated 1996).
